{"source": "patent US20090042849A1", "about": "“Phosphorylation of 5-lipoxygenase at ser523 and uses thereof” (priority 2006, published 2009)", "key": {"[1]": {"tested_on": "neonatal rat cardiomyocytes", "conditions": "neonatal rat cardiomyocytes cultures; cited from earlier work"}, "[2]": {"tested_on": "5LO (Ser523 phosphorylated 5LO)", "assay": "immunoblotting of total 5LO and P-5LO in rat myocardium (whole cell homogenate)", "type": "in vivo", "procedure": "(§1) Rats received: 1) PIO (10 mg/kg/d); 2) ATV (10 mg/kg/d); 3) PIO (10 mg/kg/d)+H89 (20 mg/kg); 4) ATV (10 mg/kg/d)+H89 (20 mg/kg); 5) H89 (20 mg/kg) or 6) water alone (control). PIO and ATV were suspended in water and administered by gastric gavage once daily for 3 days; H-89 was dissolved in DMSO (final concentration 5% v/v) and injected intraperitoneally on the third day. Rats in groups 5 and 6 received water by gastric gavage once daily for 3 days. Rats in groups 1, 2 and 6 received intraperitoneal inkection of DMSO 5%. Sixteen hours after the injection, rats were euthanized and the hearts explanted for further analyses. In another experiment, rats received 3-day pretreatment with: 1) water (sham); 2) PIO (10 mg/kg/d); 3) ATV (10 mg/kg/d); 4) PIO (10 mg/kg/d)+ATV (10 mg/kg/d); or 5) LPS (10 mg/kg).\nPIO and ATV were administered by oral gavage once daily as above; LPS was administered intravenously. In addition, rats in groups 1-4 received intravenous saline on the […], whereas rats in group 1 and 5 received water by gastric gavage once daily for 3 days and the LPS injection on the third day. Sixteen hours after the injection, rats were euthanized and the hearts explanted for further analyses.\nThe hearts were rapidly explanted, rinsed in cold PBS (pH 7.4), containing 0.16 mg/ml heparin to remove red blood cells and clots, frozen in liquid nitrogen and stored at −70° C. Myocardial samples from the anterior left ventricular wall were homogenized in RIPA lysis buffer (Santa Cruz Biotechnology, Santa Cruz, Calif.) and centrifuged at 14,000 rpm for 15 min at 4° C. The supernatant was collected and the total protein concentration was determined using the Lowry protein assay. […] The protein samples with loading buffer were run in 4-20% Tri-HCl Ready Gel at a 100V for 2 h until the desired molecular weight bands were separated. After electrophoresis, the gel was equilibrated in transfer buffer (25 mM Tris, 193 mM glycine, 0.1% SDS and 10% methanol) and the proteins were transferred to nitrocellulose membrane. The protein signals were quantified by an image-scanning-densitometer and the strength of each protein signal was normalized to the corresponding b-actin stain signal. Data are expressed as a ratio between the protein and the corresponding b-actin signal density."}, "[3]": {"tested_on": "5LO", "assay": "immunoblotting of 5LO in cytosolic, membranous and nuclear fractions of myocardial cells", "type": "in vivo", "conditions": "rat myocardium", "procedure": "Rats received: 1) […] (20 mg/kg) or 6) water alone (control). PIO and ATV were suspended in water and administered by gastric gavage once daily for 3 days; H-89 was dissolved in DMSO (final concentration 5% v/v) and injected intraperitoneally on the third day. Rats in groups 5 and 6 received water by gastric gavage once daily for 3 days. Rats in groups 1, 2 and 6 received intraperitoneal inkection of DMSO 5%. Sixteen hours after the injection, rats were euthanized and the hearts explanted for further analyses. In another experiment, rats received 3-day pretreatment with: 1) […]); or 5) LPS (10 mg/kg). Myocardial samples (0.25 g) were homogenized, mixed with Buffer A Mix [Hepes (pH 7.9) 10 mM, KCl 10 mM, EDTA 10 mM, DTT 100 mM, protease inhibitor cocktail, and IGEPAL 10%, (Sigma, St Lois, Mo.)], homogenized again and incubated for 15 min on ice, and centrifuged at 850×g for 10 min at 4° C. The supernatant was discharged, Buffer A Mix was added again and the samples incubated for an additional 15 min on ice, and centrifuged at 15,000×g for 3 min at 40 C. The supernatant contains the cytosolic fraction was collected. The pellet was resuspended in 150 μl of Buffer B Mix [Hepes (pH 7.9) 20 mM, NaCl 0.4M, EDTA 1 mM, glycerol 10%, protease inhibitor cocktail, and IGEPAL 10%], the tubes were shaked on ice at 200 rpm for 2 h, centrifuged at 15,000×g for 5 min at 4° C., and supernatants were collected as the nuclear fraction. […] The hearts were rapidly explanted, rinsed in cold PBS (pH 7.4), containing 0.16 mg/ml heparin to remove red blood cells and clots, frozen in liquid nitrogen and stored at -70° C. Myocardial samples from the anterior left ventricular wall were homogenized in RIPA lysis buffer (Santa Cruz Biotechnology, Santa Cruz, Calif.) and centrifuged at 14,000 rpm for 15 min at 4° C. The supernatant was collected and the total protein concentration was determined using the Lowry protein assay. […] The protein samples with loading buffer were run in 4-20% Tri-HCl Ready Gel at a 100V for 2 h until the desired molecular weight bands were separated. After electrophoresis, the gel was equilibrated in transfer buffer (25 mM Tris, 193 mM glycine, 0.1% SDS and 10% methanol) and the proteins were transferred to nitrocellulose membrane. The protein signals were quantified by an image-scanning-densitometer and the strength of each protein signal was normalized to the corresponding b-actin stain signal. Data are expressed as a ratio between the protein and the corresponding b-actin signal density."}, "[4]": {"tested_on": "5LO interaction with COX2 / cPLA2", "assay": "co-immunoprecipitation of 5LO with COX2 and cPLA2 in rat hearts", "type": "in vivo", "procedure": "as §1\nFor co-immunoprecipitation, myocardial cytosolic, membranous and nuclear fractions (500 μg) were incubated with anti-5LO antibodies for 4 h followed by overnight incubation at 4° C. with Protein-A-Agarose. The agarose beads were collected by centrifugation and SDS/PAGE Western immunoblotting was performed with the supernatant fraction. The anti-5LO precipitates were subjected to immunoblotting with anti-COX2 or anti-cPLA2 antibodies."}, "[5]": {"tested_on": "5LO mRNA", "assay": "rtPCR of 5LO mRNA in adult rat cardiomyocytes", "type": "cell-based", "procedure": "Cardiac myocytes were isolated from adult Sprague-Dawley rats (250-300 g, male). Animals were heparinized (1,000-2,000 units i.p.) 5 min before being anesthetized with ketamine (100 mg/kg) and xylazine (10 mg/kg), and the hearts were removed and placed in ice-cold heart media solution (in mmol/l: 112 NaCl, 5.4 KCl, 1 MgCl2, 9 NaH2PO4, and 11.1 D-glucose; supplemented with 10 HEPES, 30 taurine, 2 DL-carnitine, and 2 creatine, pH. 7.4). The hearts were perfused retrogradely in a Langendorff apparatus with Ca^2+-free heart media for 5 min at 5 ml/min at 37° C., followed by perfusion with Ca^2+-free heart media containing collagenase II, 210 U/mg (Worthington, Lakewood, N.J.) for 20 min. After perfusion, both ventricles were removed from the heart and minced in collagenase II-containing heart media for 10-15 min. The cell solution was then washed several times to remove collagenase II and reexposed to 1.2 mM Ca2^+ over 25 min to produce Ca2^+-tolerant cardiac myocytes. Myocytes were then plated in 4% FBS on laminin (2 μg/cm^2)-coated plates for 1 h and incubated at 37° C. in 5% CO2 for 12-24 h before experiments (21). Cells were incubated with 1) vehicle (0.07% ethanol); 2) PIO (10 μM)+ATV (10 μM); 3) H-89 (0.1 μM); or 4) PIO+ATV+H-89 for 12 hours. The supernatants were collected directly for LTB4 analyses by ELISA and the cells were harvested for immunoblotting. In addition, cells were plated in 8-chamber slides, received the same treatment as above and were used for immunohistochemical staining.\nEqual amounts of total cellular RNA were reverse-transcribed with oligo(dT) primer by use of AMV Reverse Transcriptase (Applied Biosystems). Transcribed cDNAs (40 ng) were used for Real Time PCR with specific primers: rat ALOX5. […] The Ct (threshold cycle) is defined as the number of cycles required for the fluorescence signal to exceed the detection threshold. Expression of the ALOX5 relative to the GAPDH was calculated as the different between the threshold values of these two genes. […]"}, "[6]": {"tested_on": "rat infarct model", "assay": "rat infarct model, infarct size", "type": "in vivo", "conditions": "ATV 2 mg/kg/d, cilostazol 20 mg/kg/d, alone or combined", "procedure": "The effects of cilostazol (Pletal) and atorvastatin on myocardial protection was measured in a rat infarct model. Pletal is a phosphodiesterase III inhibitor, thus increasing intracellular cAMP levels. cAMP activates PKA. ATV at 2 mg/kg/d had no effect. Cilostazol 20 mg/kg/d reduced infarct size. However, when combined with ATV 2 mg/kg/d the effect was much greater. There are 8 rats in the control and ATV 2 mg/kg/d groups and 6 rats in the cilostazol and the combination groups. Infarct size in the ATV 2 mg/kg/d (30.48±1.46%) is not different from the controls (33.97±2.76%)."}, "[7]": {"conditions": "whole cell homogenate, PIO or ATV 10 mg/kg/d 3 days, H-89 20 mg/kg i.p."}}, "note": "“Also recorded” adds a separate entry of the source.", "data": [{"smiles": "CC(C)c1ccc2c(c1)c(SC(C)(C)C)c(CC(C)(C)C(=O)O)n2Cc1ccc(Cl)cc1", "note": "[MK886]", "values": [{"measurement": "calcium ionophore (A23187) induction of reactive oxygen species", "setting": "[1]", "value": "prevented"}]}, {"smiles": "CCc1ccc(CCOc2ccc(CC3SC(=O)NC3=O)cc2)nc1", "note": "(centres unmarked) [PIO, 5-[[4-[2-(5-ethylpyridin-2 yl)ethoxy]phenyl]methyl]thiazolidine-2,4-dione]", "values": [{"measurement": "5LO phosphorylation, PIO and ATV compared with LPS", "setting": "[2]; PIO, ATV 10 mg/kg/d, LPS 10 mg/kg i.v.", "value": "significantly greater increase"}, {"measurement": "myocardial levels of Ser523 phosphorylated 5LO (P-5LO)", "setting": "[2]; [7]", "value": "augment; also recorded: increased"}, {"measurement": "myocardial total 5LO levels", "setting": "[2]; [7]", "value": "without detectable change; also recorded: did not affect"}, {"measurement": "5LO levels in the cytosolic fraction", "setting": "[3]", "value": "small, yet significant increase"}, {"measurement": "5LO levels in the membranous fraction", "setting": "[3]", "value": "no detectable effect"}, {"measurement": "fraction in which the co-immunoprecipitation with 5LO occurred", "setting": "[4]; cytosolic and membranous fractions", "value": "in the cytosolic, but not the membranous fraction; also recorded: only in the cytosolic fraction"}, {"measurement": "co-immunoprecipitation of COX2 or cPLA2 with 5LO", "setting": "[4]; whole cell lysate", "value": "5LO precipitated with COX2 and COX2, but not cPLA2, precipitated with 5LO"}, {"measurement": "5LO mRNA levels in the cardiomyocytes", "setting": "[5]", "value": "did not affect"}]}, {"smiles": "O=C1CCc2cc(OCCCCc3nnnn3C3CCCCC3)ccc2N1", "note": "[cilostazol]", "values": [{"measurement": "Infarct size", "setting": "[6]", "value": "15.47±1.61", "unit": "%"}, {"measurement": "effect on infarct size (in words)", "setting": "[6]", "value": "reduced"}]}]}
